In article PMC12040169 (PLOS Biology, 2025):

test: in vitro; settings: human, hela cells, % viability

SMILES	viability at 28.5 h, 10 µM
COc1cc(CN2CCN(Cc3ccncc3)CC2)cc(OC)c1O [CBK263401]	80.6%
COc1ccc(NC(=O)c2ccc(CN3CCOCC3)cc2)c(OC)c1 [CBK263790]	91.4%
COc1ccc(CC(=O)N2CCC(c3cc4ccccc4cn3)C2)cc1 (stereo not shown) [CBK283421]	105%
COc1cc(C(=O)N2CCN(C(=O)c3ccco3)CC2)cc(OC)c1OC [CBK144476]	113%
Cn1ccnc1CN1CCCC(CCC(=O)Nc2ccccc2F)C1 (stereo not shown) [CBK307462]	92.1%
CCSc1nc(N)cc(O)n1 [CBK086474]	90.5%
O=C(O)c1cc(NC(=O)c2ccccc2[N+](=O)[O-])cc(C(=O)O)c1 [CBK262135]	81.1%
O=C(NCCCc1ccc(F)cc1)c1cccc(N2CCCC2=O)c1 [CBK282684]	88.6%
Cc1ccc(OC2(C(=O)N3CCCC3c3nccs3)CCNCC2)cc1 (stereo not shown) [CBK307539]	94.6%
COc1ccc(NC(=O)c2ccc(-c3cnc(Nc4ccc(N5CCOCC5)cc4)c4nccn34)cc2)cc1 [CBK091240]	96.7%
CCC(Cc1ccccc1C)c1cc(O)c(C(c2ccccc2)C2CC2)c(=O)o1 (stereo not shown) [CBK016783]	98.3%
CN1C[C@@H](NC(=O)c2cccnc2)C[C@H]1c1nc(-c2cccnc2)no1 [CBK288857]	86.7%
O=C(O)c1cccc(NS(=O)(=O)c2ccc(Cl)c(C(=O)Nc3ccc(Br)cc3)c2)c1 [CBK263241]	87%
CCn1c(=O)n(CCC(N)=O)c2cc(S(=O)(=O)N(C)C)ccc21 [CBK305577]	99.6%
O=C(/C=C/c1ccco1)NC(=S)Nc1ccccc1[N+](=O)[O-] [CBK264375]	117%
COc1ccc(C(=O)N2CCN(c3ccc(NC(=O)c4cccnc4)cc3)CC2)cc1 [CBK270200]	85.5%
CN(C)CCN(Cc1cccnc1)C(=O)C1(c2ccccc2F)CC1 [CBK282771]	97%
O=C(O)c1cc(NC(=O)c2cccc(N3C(=O)c4ccc([N+](=O)[O-])cc4C3=O)c2)cc(C(=O)O)c1 [CBK261394]	90.5%
Cc1nc2n(c1C)CCN(c1ccc3nnc(C(F)(F)F)n3n1)C2 [CBK305815]	102%
COC(=O)N1CCN(C(=O)c2cc(C(C)C)n3ncnc3n2)CC1 [CBK306509]	85.4%
O=C(Nc1ccc(F)c(Cl)c1)c1cccnc1Sc1cccs1 [CBK057512]	89%
CN(C)c1ccc(C(=O)N2CCC(c3cc4ncccc4[nH]3)CC2)cc1 [CBK284459]	93.3%

SMILES	viability at 28.5 h, 10 µM
COc1ccc(CC(=O)Nc2nnc(C)s2)cc1OC [CBK287359]	113%
Cc1cc(NC(=O)CCCN2C(=O)c3cccc4cccc(c34)C2=O)n(-c2ccccc2)n1 [CBK265874]	109%
Cc1nc(N2CCCCC2)ncc1C(=O)NCc1nonc1C [CBK307243]	87.7%
CC(C)(C)c1cc(C(=O)NCC(=O)NCC(=O)O)cc(C(C)(C)C)c1 [CBK262200]	96%
CC(C)(C)C1CCC(OCC(O)CN2CCN(CCO)CC2)CC1 (stereo not shown) [CBK278263C]	89.8%
CC1(C)CC(CC(=O)NN)(c2ccccc2)CCO1 (stereo not shown) [CBK261358C]	86.6%
CC(C)(C)S(=O)(=O)Nc1nccnc1-c1cccs1 [CBK050765]	107%
Cc1ccc(S(=O)(=O)Nc2ccc3[nH]ccc3c2)cc1 [CBK153519]	92.5%
O=C(CSCc1ccc([N+](=O)[O-])cc1)Nc1ccc(O)cc1C(=O)O [CBK131710]	89.4%
CC(C)N(CCOc1nccnc1/C=C/c1ccccc1)C(C)C [CBK106889]	96%
O=C(O)c1cc(Nc2nc(N3CCOCC3)nc(N3CCOCC3)n2)ccc1Cl [CBK268081]	97.5%
COC(=O)CC1CCC(NC(=O)C(F)(F)F)CC1 (stereo not shown) [CBK009129]	97.4%
CCCC(CCC(=O)Nc1ccccc1Cl)C(=O)O (stereo not shown) [CBK286757]	120%
CN(CC1(C)COC1)C(=O)C1CC(=O)N(C(C)(C)C)C1 (stereo not shown) [CBK281724]	112%
Cn1c(SCc2cccc3ccccc23)nnc1-c1ccc(NC(=O)/C=C/c2ccccc2)cc1 [CBK265034]	114%
COC(=O)c1ccc2c(=O)n(CC(C)O)c(SC3CCOC3=O)nc2c1 (stereo not shown) [CBK304997]	84.7%
N#CCCCN1CCN(c2nccnc2OCc2ccc(Cl)c(Cl)c2)CC1 [CBK083086T]	94%
COc1cncc(-c2cncc(N[C@H](C)c3ccccc3)n2)c1 [CBK065537]	98.9%
O=C(Cn1nc(C(F)(F)F)c2cccn2c1=O)NC1CCCC1 [CBK282867]	90.2%
CCOc1ccc(-c2nc(CSc3n[nH]c(=O)n3Cc3ccccc3)cs2)cc1 [CBK296737]	102%
c1ccc(CCCN2CCN(Cc3cccc4ccccc34)CC2)cc1 [CBK264237]	103%
Cc1nn(C)c(C)c1C(C)NC(=O)C1CC2C=CC1C21CC1 (stereo not shown) [CBK283076]	81.5%

SMILES	viability at 28.5 h, 10 µM
COc1cc(C(=O)NCC(=O)O)cc(OC)c1OC [CBK261039]	89.9%
O=C(CSc1cccc2c(SCC(=O)c3ccccc3)cccc12)c1ccccc1 [CBK261255]	87.9%
CCN(Cc1ccncc1)C(=O)Nc1ccc(N(CC)CC)cc1 [CBK155141]	90.3%
c1ccc(Oc2ccc(Nc3cc(-c4ccc(N5CCOCC5)cc4)ncn3)cc2)cc1 [CBK090923]	83.3%
COCc1cc(=O)n2ncc(-c3ccccc3)c2[nH]1 [CBK288168]	84.6%
N#CC1=C(N)Oc2cc(O)ccc2C1c1ccccc1 (stereo not shown) [CBK219303]	90.3%
CN1C(=O)c2ccccc2C(=O)[C@@]2(C)CN(C(=O)C3CC3)C[C@@H]12 [CBK284569]	87.3%
Cc1nc(S(=O)(=O)N2CCC3(CCCCC3)C2)cn1C [CBK306306]	100%
O=C(CC1CS(=O)(=O)CC1CC(=O)Nc1cccc(Cl)c1Cl)Nc1cccc(Cl)c1Cl (stereo not shown) [CBK262404]	95.3%
COCCNc1nc(-c2cccc(-c3ccccc3)c2)cnc1N [CBK063474]	99.5%
Cc1cc(NC(=O)C2CCCCC2)nc2c1c(=O)oc1ccccc12 [CBK291247]	83.1%
NC(=O)c1ccccc1/N=C/c1ccc([N+](=O)[O-])o1 [CBK261675]	105%
CC(=O)NC1CCN(c2nc(C(C)(C)C)nc3c2cnn3C)CC1 [CBK307431]	101%
Cc1cc(CN2CCN(CCc3ccccc3)CC2)no1 [CBK126426]	85.8%
O=C(N[C@H]1CCN2C(=O)N(c3cccc(C(F)(F)F)c3)C(=O)[C@@H]2C1)c1ccncc1 [CBK289552]	98.7%
CN(C)CCN(Cc1ccncc1)Cc1cc(F)ccc1F [CBK283095]	88%
Nc1nc2ccccc2cc1-c1cccs1 [CBK112549]	100%
O=C(Nc1cccnc1N1CCNCC1)c1cc(F)cc(F)c1 [CBK029420T]	92.3%
O=[N+]([O-])c1cccc(-c2ccc(-c3nn4c(Cc5ccccc5)nnc4s3)o2)c1 [CBK267310]	86.4%
CCOC(=O)N1CCC(NC(=O)N2CCN(CCc3ccccc3)CC2)CC1 [CBK158938]	89.8%
